The values that follow come from US20250353841A1 (BIOGEN MA INC., priority 2022, published 2025).

As usually defined, the IC50 is the concentration that inhibits the measured activity by half. Higher therefore signals a need for much substance.

This test has as its system mutant Huntington (HTT) protein. Kind of test: HTT Mutant HTRF iPSC assay (mHTT protein lowering). As to conditions: human iPSC derived from a HTT patient with a poly-Q49 mutation. It is filed as cell-based. (TR-FRET usually uses a lanthanide donor and a delayed reading to cut background.)
The compound `Cc1cn2nc(-c3cc(F)c4nc(C5CCN(C6CC6)CC5)cn4c3)cc(C)c2n1` [Compound 113, 6-[2-(1-cyclopropyl-4-piperidyl)-8-fluoro-imidazo[1,2-a]pyridin-6-yl]-2,8-dimethyl-imidazo[1,2-b]pyridazine] gave an IC50 of less than 0.1 µM.

With `Cc1cn2cc(-c3cc(F)c4nc(CC5CCNCC5)cn4c3)cc(F)c2n1` [Compound 236, 8,8′-difluoro-2-methyl-2′-(piperidin-4-ylmethyl)-6,6′-biimidazo[1,2-a]pyridine], the IC50 is 0.1 to 1 µM.

Regarding `Cc1cn2nc(-c3cc(F)c4nc(C5CCC6(CCN(C)C6)C5)cn4c3)cc(C)c2n1` (stereo not shown) [Compound 232, 6-(8-fluoro-2-(2-methyl-2-azaspiro[4.4]nonan-7-yl)imidazo[1,2-a]pyridin-6-yl)-2,8-dimethylimidazo[1,2-b]pyridazine], the IC50 was less than 0.1 µM.

`Cc1cn2nc(-c3cc(F)c4nc(NC5CC(C)NC(C)C5)oc4c3)cc(C)c2n1` (stereo not shown) [Compound 484, 6-(2,8-dimethylimidazo[1,2-b]pyridazin-6-yl)-N-(2,6-dimethylpiperidin-4-yl)-4-fluorobenzo[d]oxazol-2-amine] had an IC50 of less than 0.1 µM.

Compound `Cc1cn2nc(-c3cc(F)c4nc(C56CC(N(C)C)(C5)C6)cn4c3)cc(C)c2n1` [Compound 109, 3-(6-(2,8-dimethylimidazo[1,2-b]pyridazin-6-yl)-8-fluoroimidazo[1,2-a]pyridin-2-yl)-N,N-dimethylbicyclo[1.1.1] pentan-1-amine] displayed an IC50 of less than 0.1 µM.

For `Cc1cn2nc(-c3cc(F)c4nc(C5CCN(CC6CCC6)CC5)nn4c3)cc(C)c2n1` [Compound 444, 2-(1-(cyclobutylmethyl)piperidin-4-yl)-6-(2,8-dimethylimidazo[1,2-b]pyridazin-6-yl)-8-fluoro-[1,2,4]triazolo[1,5-a]pyridine], the IC50 fell in the range of 0.1 to 1 µM.

Consider `CCc1cc(-c2cc(F)c3nn(C4CCN(C)CC4)cc3c2)nn2cc(C)nc12` [Compound 357, 8-ethyl-6-(7-fluoro-2-(1-methylpiperidin-4-yl)-2H-indazol-5-yl)-2-methylimidazo[1,2-b]pyridazine], for which the IC50 was 0.1 to 1 µM.

`Cc1cn2nc(-c3cc(F)c4nc([C@H]5[C@@H]6CN(CC(F)F)C[C@@H]65)cn4c3)cc(C)c2n1` [Compound 217, 6-(2-((1R,5S,6r)-3-(2,2-difluoroethyl)-3-azabicyclo[3.1.0]hexan-6-yl)-8-fluoroimidazo[1,2-a]pyridin-6-yl)-2,8-dimethylimidazo[1,2-b]pyridazine] registered an IC50 of 0.1 to 1 µM.

Compound `Cc1cn2nc(-c3cc(F)c4nc([C@H]5CC[C@@]6(CCNC6)CC5)nn4c3)cc(C)c2n1` [Compound 452, (5r,8r)-8-(6-(2,8-dimethylimidazo[1,2-b]pyridazin-6-yl)-8-fluoro-[1,2,4]triazolo[1,5-a]pyridin-2-yl)-2-azaspiro[4.5]decane] returned an IC50 of 0.1 to 1 µM.

Regarding `Cn1cc2cc(-c3cc(F)c4nc(C5CCNCC5)cn4c3)cc(F)c2n1` [Compound 93, 7-fluoro-5-(8-fluoro-2-(piperidin-4-yl)imidazo[1,2-a]pyridin-6-yl)-2-methyl-2H-indazole], the IC50 was 0.1 to 1 µM.

For the compound `Cc1cn2nc(-c3cc(F)c4nc(NC(=O)C5CN(CC(F)F)C5)cn4c3)cc(C)c2n1` [Compound 267, 1-(2,2-difluoroethyl)-N-(6-(2,8-dimethylimidazo[1,2-b]pyridazin-6-yl)-8-fluoroimidazo[1,2-a]pyridin-2-yl)azetidine-3-carboxamide], the IC50 is 0.1 to 1 µM.

Compound `Cc1cn2nc(-c3cc(F)c4nc(C5CCNCC5)c(Cl)n4c3)ccc2n1` [Compound 126, 6-[3-chloro-8-fluoro-2-(4-piperidyl)imidazo[1,2-a]pyridin-6-yl]-2-methyl-imidazo[1,2-b]pyridazine] had an IC50 of less than 0.1 µM.

Turning to `Cc1cn2nc(-c3cc(F)c4nc(C5CCN(C6CCC6)CC5)cn4c3)cc(C)c2n1` [Compound 69, 6-[2-(1-cyclobutyl-4-piperidyl)-8-fluoro-imidazo[1,2-a]pyridin-6-yl]-2,8-dimethyl-imidazo[1,2-b]pyridazine], the IC50 is less than 0.1 µM.

With `Cc1cn2nc(-c3cc(F)c4nn(C5CC6CNCC65)nc4c3)cc(C)c2n1` (racemic) [Compound 397, 2-(3-azabicyclo[3.2.0]heptan-6-yl)-6-(2,8-dimethylimidazo[1,2-b]pyridazin-6-yl)-4-fluoro-2H-benzo[d][1,2,3]triazole], the IC50 lay in the range of 0.1 to 1 µM.

`Cc1cn2nc(-c3cc(F)c4nc(NC(=O)C5CN(C(C)C)C5)cn4c3)cc(C(F)F)c2n1` [Compound 290, N-[6-[8-(difluoromethyl)-2-methyl-imidazo[1,2-b]pyridazin-6-yl]-8-fluoro-imidazo[1,2-a]pyridin-2-yl]-1-isopropyl-azetidine-3-carboxamide] showed an IC50 of less than 0.1 µM.

`Cc1cn2nc(-c3cc(F)c4nc([C@H]5[C@@H]6CNC[C@@H]65)cn4c3)cc(C)c2n1` [Compound 161, 6-[2-[(1S,5R)-3-azabicyclo[3.1.0]hexan-6-yl]-8-fluoro-imidazo[1,2-a]pyridin-6-yl]-2,8-dimethyl-imidazo[1,2-b]pyridazine] registered an IC50 of less than 0.1 µM.

Compound `Fc1cc(-c2ccc3sncc3c2)cn2cc(C3CCNCC3)nc12` [Compound 98, 5-(8-fluoro-2-(piperidin-4-yl)imidazo[1,2-a]pyridin-6-yl)benzo[d]isothiazole] had an IC50 of 1 to 9 µM.

In the case of `Fc1cc(-c2ncc3cccn3n2)cn2cc(C3CCNCC3)nc12` [Compound 198, 2-(8-fluoro-2-(piperidin-4-yl)imidazo[1,2-a]pyridin-6-yl)pyrrolo[2,1-f][1,2,4]triazine], the half-maximal inhibitory concentration (IC50) lay in the range of 0.1 to 1 µM.

The compound `Cc1cn2nc(-c3cc(F)c4nc(NC(=O)CC5CCCN5C)nn4c3)cc(C)c2n1` (racemic) [Compound 329, N-(6-(2,8-dimethylimidazo[1,2-b]pyridazin-6-yl)-8-fluoro-[1,2,4]triazolo[1,5-a]pyridin-2-yl)-2-(1-methylpyrrolidin-2-yl)acetamide] gave an IC50 of 0.1 to 1 µM.

The compound `CNC12CC(c3cn4cc(-c5cc(C)c6nc(C)cn6n5)cc(F)c4n3)(C1)C2` [Compound 100, 3-(6-(2,8-dimethylimidazo[1,2-b]pyridazin-6-yl)-8-fluoroimidazo[1,2-a]pyridin-2-yl)-N-methylbicyclo[1.1.1] pentan-1-amine] had an IC50 of less than 0.1 µM.

As for `Cc1cn2nc(-c3cc(F)c4nc(NC(=O)[C@H]5C[C@H](N(C)C)C5)cn4c3)cc(C)c2n1` [Compound 288, (1r,3r)-3-(dimethylamino)-N-(6-(2,8-dimethylimidazo[1,2-b]pyridazin-6-yl)-8-fluoroimidazo[1,2-a]pyridin-2-yl)cyclobutane-1-carboxamide], the IC50 was less than 0.1 µM.

The compound `Cc1nc2c(C)cc(-c3cc(F)c4nn(C5CCN(C)CC5)cc4c3)nn2n1` [Compound 359, 6-(7-fluoro-2-(1-methylpiperidin-4-yl)-2H-indazol-5-yl)-2,8-dimethyl-[1,2,4]triazolo[1,5-b]pyridazine] returned an IC50 of less than 0.1 µM.

In turn, `Cc1cn2nc(-c3cc(F)c4nn(C5CCN(C)C5)cc4c3)cc(C)c2n1` (stereo not shown) [Compound 366, 6-(7-fluoro-2-(1-methylpyrrolidin-3-yl)-2H-indazol-5-yl)-2,8-dimethylimidazo[1,2-b]pyridazine] showed an IC50 of 1 to 9 µM.

Turning to `Cc1cn2nc(-c3cc(Cl)c4oc(C5CCNCC5)nc4c3)cc(C)c2n1` [Compound 535, 7-chloro-5-(2,8-dimethylimidazo[1,2-b]pyridazin-6-yl)-2-(4-piperidyl)-1,3-benzoxazole], the IC50 is 1 to 9 µM.

`Cc1cn2nc(-c3cc(F)c4nn([C@H]5[C@@H]6CN(CC7CC7)C[C@@H]65)cc4c3)cc(C)c2n1` [Compound 367, 6-[2-[(1R,5S)-3-(cyclopropylmethyl)-3-azabicyclo[3.1.0]hexan-6-yl]-7-fluoro-indazol-5-yl]-2,8-dimethyl-imidazo[1,2-b]pyridazine] returned an IC50 of 0.1 to 1 µM.

Compound `Cc1cn2cc(-c3cc(F)c4nn(C5CCNCC5)nc4c3)cc(F)c2n1` [Compound 137, 4-fluoro-6-(8-fluoro-2-methylimidazo[1,2-a]pyridin-6-yl)-2-(piperidin-4-yl)-2H-benzo[d][1,2,3]triazole] registered an IC50 of 0.1 to 1 µM.

For the compound `Cn1cc2cc(-c3cc(F)c4nn(C5CCNCC5)nc4c3)cc(C(F)F)c2n1` [Compound 382, 6-(7-(difluoromethyl)-2-methyl-2H-indazol-5-yl)-4-fluoro-2-(piperidin-4-yl)-2H-benzo[d][1,2,3]triazole], the IC50 was in the range of 0.1 to 1 µM.

Turning to `CCN1CCC(c2cc(F)c3nc(-c4cc(C)c5nc(C)cn5n4)cn3c2)CC1` [Compound 132], the IC50 is 1 to 9 µM.

Consider `Cc1cn2nc(-c3cc(F)c4nc(C5CCNC5)cn4c3)cc(C)c2n1` (stereo not shown) [Compound 160, 6-(8-fluoro-2-(pyrrolidin-3-yl)imidazo[1,2-a]pyridin-6-yl)-2,8-dimethylimidazo[1,2-b]pyridazine], for which the IC50 was less than 0.1 µM.

`Cc1cn2nc(-c3cc(F)c4nc(NC(=O)CC5CCNC5)cn4c3)cc(C)c2n1` (racemic) [Compound 283, N-(6-(2,8-dimethylimidazo[1,2-b]pyridazin-6-yl)-8-fluoroimidazo[1,2-a]pyridin-2-yl)-2-(pyrrolidin-3-yl)acetamide] showed an IC50 of 0.1 to 1 µM.

Consider `Cc1cn2nc(-c3cc(F)c4nc(C5CCN(C)C6(CC6)C5)cn4c3)cc(C)c2n1` (single isomer, unassigned) [Compound 209], for which the half-maximal inhibitory concentration (IC50) is less than 0.1 µM.

For the compound `Cc1cn2nc(-c3cc(F)c4nc([C@H]5C[C@@H](CN(C)C)C5)cn4c3)cc(C)c2n1` [Compound 182, 1-((1s,3s)-3-(6-(2,8-dimethylimidazo[1,2-b]pyridazin-6-yl)-8-fluoroimidazo[1,2-a]pyridin-2-yl)cyclobutyl)-N,N-dimethylmethanamine], the IC50 is less than 0.1 µM.

In turn, `Cc1cn2nc(-c3cc(F)c4nn(C5CCN(CC6CC6)CC5)cc4c3)cc2c(C)n1` [Compound 372, 2-(2-(1-(cyclopropylmethyl)piperidin-4-yl)-7-fluoro-2H-indazol-5-yl)-4,6-dimethylpyrazolo[1,5-a]pyrazine] gave an IC50 of less than 0.1 µM.

Take `CCN1CCC(N(C)c2nc3cc(-c4cc(C)c5nc(C)cn5n4)cc(F)c3o2)CC1C` [Compound 533, rel-5-(2,8-dimethylimidazo[1,2-b]pyridazin-6-yl)-N-((2S,4S)-1-ethyl-2-methylpiperidin-4-yl)-7-fluoro-N-methylbenzo[d]oxazol-2-amine]: the IC50 lay within 1 to 9 µM.
